Each structure is given as a SMILES string. pIC50: −log10 of the molar value. A value given as a limit tells only on which side of the number the result lay.

Our source for the IC50 values is US9085568B2, “Mineralocorticoid receptor antagonists” (Merck Sharp & Dohme Corp., priority 2011, dated 2015).

This assay deals with T1, full-length human Mineralocorticoid Receptor (MR) (Homo sapiens, UniProt P08235).
T1 construct: host or cells: PathHunter CHO-K1 cells
T1 sequence (P08235 1-984): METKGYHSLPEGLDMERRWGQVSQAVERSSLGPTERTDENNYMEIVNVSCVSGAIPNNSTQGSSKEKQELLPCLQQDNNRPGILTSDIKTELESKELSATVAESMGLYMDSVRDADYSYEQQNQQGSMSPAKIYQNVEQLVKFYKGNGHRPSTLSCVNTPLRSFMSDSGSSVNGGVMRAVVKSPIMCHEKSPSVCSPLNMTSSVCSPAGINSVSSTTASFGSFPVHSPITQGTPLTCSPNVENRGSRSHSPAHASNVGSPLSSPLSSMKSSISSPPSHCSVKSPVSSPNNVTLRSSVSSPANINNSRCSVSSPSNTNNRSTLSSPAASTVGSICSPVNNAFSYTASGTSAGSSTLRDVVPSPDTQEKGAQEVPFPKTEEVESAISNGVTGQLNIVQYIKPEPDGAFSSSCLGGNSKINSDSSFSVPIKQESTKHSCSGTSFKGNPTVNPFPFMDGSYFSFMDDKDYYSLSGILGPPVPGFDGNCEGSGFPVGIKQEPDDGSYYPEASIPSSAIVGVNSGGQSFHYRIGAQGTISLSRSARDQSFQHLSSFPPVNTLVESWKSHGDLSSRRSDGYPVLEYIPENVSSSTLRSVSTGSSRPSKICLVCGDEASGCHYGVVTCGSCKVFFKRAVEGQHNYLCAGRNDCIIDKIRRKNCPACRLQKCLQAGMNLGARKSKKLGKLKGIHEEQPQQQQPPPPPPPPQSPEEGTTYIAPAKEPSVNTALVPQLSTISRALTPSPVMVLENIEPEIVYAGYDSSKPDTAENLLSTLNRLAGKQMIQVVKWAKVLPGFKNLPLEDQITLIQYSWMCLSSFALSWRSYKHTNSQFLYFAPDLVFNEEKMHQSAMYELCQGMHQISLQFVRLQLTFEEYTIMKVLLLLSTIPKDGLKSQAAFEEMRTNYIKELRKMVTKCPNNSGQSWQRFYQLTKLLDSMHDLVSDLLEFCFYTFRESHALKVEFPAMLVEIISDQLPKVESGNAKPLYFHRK
The assay is described as follows: human MR NH Pro assay (PathHunter protein:protein interaction, MR antagonism). As to conditions: PathHunter CHO-K1 cells overexpressing human MR; aldosterone (0.3 nM), 6 hours at 37° C.; antagonism of MR binding to coactivator peptide; read-out: IC50 Rating. It is filed as cell-based.

Experimental: The activity of the compounds of the present invention regarding mineralocorticoid receptor antagonism was evaluated using the following assay.
The human MR NH Pro assay is a commercially available PathHunter™ Protein: Protein interaction assay (DiscoveRx; http://www.discoverx.com/nhrs/prod-nhrs.php) that measures the ability of compounds to antagonize full-length human Mineralocorticoid Receptor (MR) binding to a coactivator peptide.
3× PathHunter Detection Reagents (Cat #93-0001) (need ˜6 ml/plate). […] Control Agonist: Aldosterone: Sigma cat #A9477 • Prepare stock solution—10 μM in DMSO kept at −20° C. • for assay, dilute in assay media to 1.8 or 6 nM (6× of final concentration=about 0.3 nM to about 1.0 nM) • 5. Cell line: PathHunter CHO-K1 MR cells Cat #93-0456C2, Lot No: 09B0913, from operation liquid nitrogen stock. • 6. […] Methods: • Assay Set Up and Calculations: • 1. Cells were grown in F12+FBS+Hygromycin+pen/strep+Genetin • 2. Cells were collected with 0.05% trypsin and the cell suspension was spun and resuspended in a volume of F12+1.5% CD-FBS and counted. • 3. The cells were resuspended to 4×10^5 cells/mL. • 4. Cells were (25 μL/well) added to the wells of a 384 well plate. • 5. The plate was then incubated at 37° C. over night in a humidified incubator with 5% CO2. • 6. Test compounds were titrated starting at 4.4 mM, 10-point titration in 1:3 dilution. • 7.
5 μL of assay media was added to all wells in column 23 and 24. • 5. Plates were incubated 6 hrs at 37° C., 5% CO2. • 6. 15 μL 3× DiscoveRx detection reagent was added to each well. • 7. Plates were incubated for 1 hour at room temperature (plates stored in the dark). • 8.

The pIC50 is the negative decadic logarithm of the IC50, by convention in mol/L. Regarding `COc1cc(OC)cc(-c2nnc([C@@]3(Cc4ccccc4)NC(=O)N([C@H](C)c4ccccc4)C3=O)o2)c1` (single isomer, unassigned) [Compound 22], the negative logarithm of the IC50 (pIC50) was 5.70 to 6.30.

As to `C[C@H](c1ccccc1)N1C(=O)O[C@](Cc2ccccc2)(c2nnc(CC(F)(F)F)o2)C1=O` [Compound 11, (5R)-5-Benzyl-3-[(1R)-1-phenylethyl]-5-[5-(2,2,2-trifluoroethyl)-1,3,4-oxadiazol-2-yl]-1,3-oxazolidine-2,4-dione], the pIC50 is 5.70 to 6.30.

As to `COc1cc(N)cc(-c2nnc([C@@]3(Cc4ccccc4)OC(=O)N([C@H](C)c4ccccc4)C3=O)o2)c1` [Compound 10, (5R)-5-[5-(3-Amino-5-methoxyphenyl)-1,3,4-oxadiazol-2-yl]-5-benzyl-3-[(1R)-1-phenylethyl]-1,3-oxazolidine-2,4-dione], the pIC50 is 6.30 to 7.00.

For `C[C@H](c1ccccc1)N1C(=O)O[C@](Cc2ccccc2)(c2nnc(C3(C(F)(F)F)CC3)o2)C1=O` [Compound 12, (5R)-5-Benzyl-3-[(1R)-1-phenylethyl]-5-{5-[1-(trifluoromethyl)cyclopropyl]-1,3,4-oxadiazol-2-yl}-1,3-oxazolidine-2,4-dione], the pIC50 is 5.70 to 6.30.

Turning to `COc1cc(OC)cc(-c2n[nH]c(C3(Cc4ccccc4)OC(=O)N([C@H](C)c4ccc(F)cc4)C3=O)n2)c1` (stereo partly drawn) [Compound 1, 5-Benzyl-5-[5-(3,5-dimethoxyphenyl)-4H-1,2,4-triazol-3-yl]-3-[(1R)-1-(4-fluorophenyl)ethyl]-1,3-oxazolidine-2,4-dione], the negative-log IC50 (pIC50) was 5.70 to 6.30.

Consider `C[C@H](c1ccccc1)N1C(=O)O[C@](Cc2ccccc2)(c2nnc(C3(c4cc(F)cc(F)c4)CC3)o2)C1=O` [Compound 9, (5R)-5-Benzyl-5-{5-[1-(3,5-difluorophenyl)cyclopropyl]-1,3,4-oxadiazol-2-yl}-3-[(1R)-1-phenylethyl]-1,3-oxazolidine-2,4-dione], for which the pIC50 is 6.30 to 7.00.

As for `COc1cc(Cc2nnc([C@@]3(Cc4ccccc4)OC(=O)N([C@H](C)c4ccccc4)C3=O)o2)cc(OC)c1` [Compound 2, (5R)-5-Benzyl-5-[5-(3,5-dimethoxybenzyl)-1,3,4-oxadiazol-2-yl]-3-[(1R)-1-phenylethyl]-1,3-oxazolidine-2,4-dione], the pIC50 was more than 7.00.

For `C[C@H](c1ccccc1)N1C(=O)O[C@](Cc2ccccc2)(c2nnc(C3(c4ccncc4)CC3)o2)C1=O` [Compound 14, (5R)-5-Benzyl-3-[(1R)-1-phenylethyl]-5-[5-(1-pyridin-4-ylcyclopropyl)-1,3,4-oxadiazol-2-yl]-1,3-oxazolidine-2,4-dione], the pIC50 was 6.30 to 7.00.
